Where “and” joins values, the source holds several entries; their conditions need not be identical. Equal values may be shown once.
Test system: total IκBα
Assay: NanoBiT cell-based immunoassay, total IκBα in MCF-7 cells
Design: species or system human
Conditions: for Total IkB Average / Average / IkB Average: background subtracted; for Raw data / Subtract background / Average: Figure 2d; for Average IKB (background subtracted) / Raw data IKB / Subtract reagent background IKB: 30 min, MCF-7, Fig 7a; for IkB Average / IKB Raw data / IKB Subtract reagent background: without CHX
Outline: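 Cells were lysed in 0.1% digitonin buffer, then target protein was detected with two primary antibodies plus NanoBiT detection antibodies (90 min, 23 °C), read as luminescence minus reagent background. For pSTAT3, A431 cells were serum-starved overnight before inhibitor and stimulator. For IκBα, MCF-7 cells got inhibitor for 60 min before TNFα. IC50 came from variable-slope sigmoidal fits.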

[1] = Figure 3a and 3b, listed as TNF
[2] = No MG132, TNF 2 min, listed as TNF
[3] = No MG132, TNF 4 min, listed as TNF
[4] = No MG132, TNF 6 min, listed as TNF
[5] = No MG132, TNF 8 min, listed as TNF
[6] = No MG132, TNF 10 min, listed as TNF
[7] = No MG132, TNF 12 min, listed as TNF
[8] = No MG132, TNF 15 min, listed as TNF
[9] = No MG132, TNF 30 min, listed as TNF
[10] = TNF 0.00038147 ng/ml, listed as TNF
[11] = TNF 0.00152588 ng/ml, listed as TNF
[12] = TNF 0.00610352 ng/ml, listed as TNF
[13] = TNF 0.0244141 ng/ml, listed as TNF
[14] = TNF 0.0976562 ng/ml, listed as TNF
[15] = TNF 0.390625 ng/ml, listed as TNF
[16] = TNF 1.5625 ng/ml, listed as TNF

## TNFα
Figure 3a and 3b
  Total IkB Average: 42170
[1]
  Total IkB Raw data: 63440 and 64850 and 64790
  Total IkB Subtract reagent background: 42600 and 41250 and 42660
Cell # 3500, listed as TNF
  Raw data: 18670 and 18820
  Subtract background: 4540 and 4140
Cell # 7000, listed as TNF
  Raw data: 18660 and 18670
  Subtract background: 4530 and 3990
Cell # 14000, listed as TNF
  Raw data: 18430 and 19060
  Subtract background: 4300 and 4380
Cell # 21000
  Raw data: 19110
  Average: 4705
Cell # 21000, listed as TNF
  Subtract background: 4980 and 4430
Cell # 28000, listed as TNF
  Raw data: 20250 and 19900
  Subtract background: 6120 and 5220
Cell # 35000, listed as TNF
  Raw data: 20910 and 20760
  Subtract background: 6780 and 6080
Cell # 42000, listed as TNF
  Raw data: 21720 and 21040
  Subtract background: 7590 and 6360
Cell # 49000, listed as TNF
  Raw data: 22850 and 23430
  Subtract background: 8720 and 8750
Cell # 56000, listed as TNF
  Raw data: 23160 and 23600
  Subtract background: 9030 and 8920
Cell # 63000, listed as TNF
  Raw data: 26970 and 26330
  Subtract background: 12840 and 11650
Cell # 3500
  Average: 4340
Cell # 7000
  Average: 4260
Cell # 14000
  Average: 4340
Cell # 28000
  Average: 5670
Cell # 35000
  Average: 6430
Cell # 42000
  Average: 6975
Cell # 49000
  Average: 8735
Cell # 56000
  Average: 8975
Cell # 63000
  Average: 12245
No MG132, TNF 2 min
  Total IkB Average: 63885
[2]
  Total IkB Raw data: 78720 and 79300 and 81370 and 83380
  Total IkB Subtract reagent background: 61913 and 62493 and 64563 and 66573
No MG132, TNF 4 min
  Total IkB Average: 62935
[3]
  Total IkB Raw data: 77560 and 79450 and 81310 and 80650
  Total IkB Subtract reagent background: 60753 and 62643 and 64503 and 63843
No MG132, TNF 6 min
  Total IkB Average: 62480
[4]
  Total IkB Raw data: 79920 and 79580 and 79430 and 78220
  Total IkB Subtract reagent background: 63113 and 62773 and 62623 and 61413
No MG132, TNF 8 min
  Total IkB Average: 58228
[5]
  Total IkB Raw data: 76120 and 76190 and 73510 and 74320
  Total IkB Subtract reagent background: 59313 and 59383 and 56703 and 57513
No MG132, TNF 10 min
  Total IkB Average: 52595
[6]
  Total IkB Raw data: 72590 and 72810 and 65780 and 66430
  Total IkB Subtract reagent background: 55783 and 56003 and 48973 and 49623
No MG132, TNF 12 min
  Total IkB Average: 41533
[7]
  Total IkB Raw data: 62400 and 61420 and 53610 and 55930
  Total IkB Subtract reagent background: 45593 and 44613 and 36803 and 39123
No MG132, TNF 15 min
  Total IkB Average: 29070
[8]
  Total IkB Raw data: 51070 and 48840 and 41650 and 41950
  Total IkB Subtract reagent background: 34263 and 32033 and 24843 and 25143
No MG132, TNF 30 min
  Total IkB Average: 9615
[9]
  Total IkB Raw data: 28150 and 26460 and 25400 and 25680
  Total IkB Subtract reagent background: 11343 and 9653 and 8593 and 8873
TNF 0.00038147 ng/ml
  Average IKB (background subtracted): 68883
[10]
  Raw data IKB: 80810 and 81860 and 75990
  Subtract reagent background IKB: 70140 and 71190 and 65320
TNF 0.00152588 ng/ml
  Average IKB (background subtracted): 65947
[11]
  Raw data IKB: 78690 and 78640 and 72520
  Subtract reagent background IKB: 68020 and 67970 and 61850
TNF 0.00610352 ng/ml
  Average IKB (background subtracted): 63850
[12]
  Raw data IKB: 76470 and 76630 and 70460
  Subtract reagent background IKB: 65800 and 65960 and 59790
TNF 0.0244141 ng/ml
  Average IKB (background subtracted): 59300
[13]
  Raw data IKB: 73310 and 70780 and 65820
  Subtract reagent background IKB: 62640 and 60110 and 55150
TNF 0.0976562 ng/ml
  Average IKB (background subtracted): 52567
[14]
  Raw data IKB: 65850 and 63760 and 60100
  Subtract reagent background IKB: 55180 and 53090 and 49430
TNF 0.390625 ng/ml
  Average IKB (background subtracted): 37353
[15]
  Raw data IKB: 46770 and 47240 and 50060
  Subtract reagent background IKB: 36100 and 36570 and 39390
TNF 1.5625 ng/ml
  Average IKB (background subtracted): 21387
[16]
  Raw data IKB: 30440 and 30700 and 35030
  Subtract reagent background IKB: 19770 and 20030 and 24360
TNF 6.25 ng/ml
  Average IKB (background subtracted): 12817
TNF 6.25 ng/ml, listed as TNF
  Raw data IKB: 23480 and 22250 and 24730
  Subtract reagent background IKB: 12810 and 11580 and 14060
TNF 25 ng/ml
  Average IKB (background subtracted): 10187
TNF 25 ng/ml, listed as TNF
  Raw data IKB: 20190 and 20330 and 22050
  Subtract reagent background IKB: 9520 and 9660 and 11380
TNF 100 ng/ml
  Average IKB (background subtracted): 9587
TNF 100 ng/ml, listed as TNF
  Raw data IKB: 19860 and 20090 and 20820
  Subtract reagent background IKB: 9190 and 9420 and 10150
TNF 5 min
  IkB Average: 50908
TNF 5 min, listed as TNF
  IKB Raw data: 65320 and 61760 and 61990 and 62780
  IKB Subtract reagent background: 53265 and 49705 and 49935 and 50725
TNF 10 min
  IkB Average: 31425
TNF 10 min, listed as TNF
  IKB Raw data: 42500 and 40590 and 43600 and 47230
  IKB Subtract reagent background: 30445 and 28535 and 31545 and 35175
TNF 20 min
  IkB Average: 10930
TNF 20 min, listed as TNF
  IKB Raw data: 21120 and 20330 and 22530 and 27960
  IKB Subtract reagent background: 9065 and 8275 and 10475 and 15905
TNF 30 min
  IkB Average: 8948
TNF 30 min, listed as TNF
  IKB Raw data: 19500 and 19660 and 20770 and 24080
  IKB Subtract reagent background: 7445 and 7605 and 8715 and 12025
TNF 40 min
  IkB Average: 12565
TNF 40 min, listed as TNF
  IKB Raw data: 24080 and 23090 and 23770 and 27540
  IKB Subtract reagent background: 12025 and 11035 and 11715 and 15485
TNF 60 min
  IkB Average: 23095
TNF 60 min, listed as TNF
  IKB Raw data: 35230 and 33190 and 36060 and 36120
  IKB Subtract reagent background: 23175 and 21135 and 24005 and 24065
TNF 80 min
  IkB Average: 35000
TNF 80 min, listed as TNF
  IKB Raw data: 46920 and 46230 and 46940 and 48130
  IKB Subtract reagent background: 34865 and 34175 and 34885 and 36075
TNF 100 min
  IkB Average: 40533
TNF 100 min, listed as TNF
  IKB Raw data: 53930 and 50010 and 52000 and 54410
  IKB Subtract reagent background: 41875 and 37955 and 39945 and 42355
TNF 120 min
  IkB Average: 41718
TNF 120 min, listed as TNF
  IKB Raw data: 56260 and 53820 and 52280 and 52730
  IKB Subtract reagent background: 44205 and 41765 and 40225 and 40675
